Patent publication US5756423A, “Method of controlling plants by inhibition of farnesyl pyrophosphate synthase” (Zeneca Limited, priority 1997, dated 1998)
Where two headings read alike, the source gives them in different places.

Key:
[1] = system: wild mustard (Brassica kaber), also known as Sinapis arvensis (SINAR); test: post-emergent herbicidal test, wild mustard; type: in vivo; settings: for pest or weed control at 1000 g/ha / pest or weed control at 4000 g/ha: Brassica, post-emergence, read-out: SINAR percent control
Outline: (§1)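 Weeds sown in sandy loam with trace organic matter, greenhouse-grown 10–12 days (14 h light, 29/21 °C day/night), grasses sprayed at 3–4 leaf, broadleaves at 1–2 leaf stage. Compounds applied at 1 and 4 kg/ha in water with 0.5% v/v Tween 20; percent control versus untreated flats rated 17–21 days after spraying (0–100%).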

[2] = system: green foxtail (Setaria viridis) (SETVI); test: post-emergent herbicidal test, green foxtail; type: in vivo; settings: for pest or weed control at 1000 g/ha / pest or weed control at 4000 g/ha: Setaria viridis, post-emergence, read-out: SETVI percent control
Outline: as §1

[3] = system: yellow nutsedge (Cyperus esculentus) (CYPES); test: post-emergent herbicidal test, yellow nutsedge; type: in vivo; settings: for pest or weed control at 1000 g/ha / pest or weed control at 4000 g/ha: Cyperus, post-emergence, read-out: CYPES percent control
Outline: as §1

[4] = system: farnesyl pyrophosphate synthase in daffodil chromoplasts; test: inhibition of farnesyl pyrophosphate synthase in daffodil chromoplasts (14C-isopentenyl pyrophosphate incorporation); type: biochemical, Narcissus pseudonarcissus; settings: unit inferred, IC50 values in nM, read-out: IC50
Outline: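 Daffodil chromoplasts in pH 7.7 sucrose/MgCl2/HEPES buffer with cysteine, NaF and BSA, started with ~3 micromolar 14C-isopentenyl pyrophosphate, 30 min at 30° C. Butanol-extractable radioactivity counted by scintillation; % residual activity calculated against zero-time and end-point no-inhibitor controls.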

[5] = system: wild oat (Avena fatua) (AVEFA); test: post-emergent herbicidal test, wild oat; type: in vivo; settings: for pest or weed control at 1000 g/ha / pest or weed control at 4000 g/ha: Avena fatua, post-emergence, read-out: AVEFA percent control
Outline: as §1

[6] = system: barnyard grass (Enchinochloa crusgalli) (ECHCG); test: post-emergent herbicidal test, barnyard grass; type: in vivo; settings: for pest or weed control at 1000 g/ha / pest or weed control at 4000 g/ha: Echinochloa crus-galli, post-emergence, read-out: ECHCG percent control
Outline: as §1

[7] = system: velvetleaf (Abutilon theophrasti) (ABUTH); test: post-emergent herbicidal test, velvetleaf; type: in vivo; settings: for pest or weed control at 1000 g/ha / pest or weed control at 4000 g/ha: Abutilon theophrasti, post-emergence, read-out: ABUTH percent control
Outline: as §1

[8] = system: morningglory (Ipomoea spp.) (IPOSS); test: post-emergent herbicidal test, morningglory; type: in vivo; settings: for pest or weed control at 1000 g/ha / pest or weed control at 4000 g/ha: Ipomoea, post-emergence, read-out: IPOSS percent control
Outline: as §1

[9] = post-emergent, 1.0 kg/ha (*), 17-21 days after application
[10] = post-emergent, 4.0 kg/ha, 17-21 days after application

SMILES	pest or weed control at 1000 g/ha [1, 9]	pest or weed control at 1000 g/ha [2, 9]	pest or weed control at 1000 g/ha [3, 9]	IC50 ([4]; Table I)	IC50 ([4]; Table II)	pest or weed control at 1000 g/ha [5, 9]	pest or weed control at 1000 g/ha [6, 9]	pest or weed control at 1000 g/ha [7, 9]	pest or weed control at 1000 g/ha [8, 9]	also measured
CCCN(CC(C)C)CC(P(=O)(O)O)P(=O)(O)O [Compound 51]	100%	98%	5%	91 nM	91 nM	100%	98%	70%	15%	
O=P(O)(O)C(CNCCc1ccccc1)P(=O)(O)O [Compound 28]	50%	30%	10%	1410 nM	1410 nM	60%	5%	5%	5%	
CNCC(P(=O)(O)O)P(=O)(O)O [Compound 25]				1680 nM	1680 nM					pest or weed control at 1000 g/ha [1]: 100%; pest or weed control at 1000 g/ha [2]: 100%; pest or weed control at 1000 g/ha [3]: 85%; pest or weed control at 1000 g/ha [5]: 100%; pest or weed control at 1000 g/ha [6]: 100%; pest or weed control at 1000 g/ha [7]: 98%; pest or weed control at 1000 g/ha [8]: 90%
CC(C)NCC(P(=O)(O)O)P(=O)(O)O [Compound 6]				89 nM	89 nM					pest or weed control at 4000 g/ha [1]: 100%; pest or weed control at 4000 g/ha [2]: 60%; pest or weed control at 4000 g/ha [3]: 25%; pest or weed control at 4000 g/ha [5]: 50%; pest or weed control at 4000 g/ha [6]: 60%; pest or weed control at 4000 g/ha [7]: 15%; pest or weed control at 4000 g/ha [8]: 70%
CC1CCCN1CC(P(=O)(O)O)P(=O)(O)O (stereo not drawn) [Compound 43]	100%	98%	5%	93 nM	93 nM	100%	98%	30%	60%	
O=P(O)(O)C(O)(C1CCCN1)P(=O)(O)O (stereo not drawn) [Compound 2]				933 nM	933 nM					pest or weed control at 4000 g/ha [1, 10]: 90%; pest or weed control at 4000 g/ha [2, 10]: 60%; pest or weed control at 4000 g/ha [3, 10]: 5%; pest or weed control at 4000 g/ha [5, 10]: 0%; pest or weed control at 4000 g/ha [6, 10]: 0%; pest or weed control at 4000 g/ha [7, 10]: 0%; pest or weed control at 4000 g/ha [8, 10]: 0%
CC(NCC(P(=O)(O)O)P(=O)(O)O)c1ccccc1 (stereo not drawn) [Compound 27]				1230 nM	1230 nM					SINAR percent control [1, 9]: 100%; SETVI percent control [2, 9]: 90%; CYPES percent control [3, 9]: 75%; AVEFA percent control [5, 9]: 80%; ECHCG percent control [6, 9]: 90%; ABUTH percent control [7, 9]: 75%; IPOSS percent control [8, 9]: 5%
CC1(C)CCCN(CC(P(=O)(O)O)P(=O)(O)O)C1 [Compound 47]	5%	10%	0%	2280 nM	2280 nM	0%	0%	0%	0%	
Cc1cnn(CC(P(=O)(O)O)P(=O)(O)O)c1 [Compound 60]	20%	30%	0%	1410 nM	1410 nM	10%	30%	10%	5%	
O=P(O)(O)C(CN1C=NCCC1)P(=O)(O)O [Compound 65]	100%	100%	5%	50 nM	50 nM	95%	100%	100%	100%	
Cc1cn(CC(P(=O)(O)O)P(=O)(O)O)cn1 [Compound 58]	100%	100%	10%	107 nM	107 nM	100%	98%	98%	90%	
CCCCCN(CCC)CC(P(=O)(O)O)P(=O)(O)O [Compound 62]	85%	95%	10%	186 nM	186 nM	100%	85%	15%	30%	
CCN(CC)CC(P(=O)(O)O)P(=O)(O)O [Compound 13]	95%	80%	5%	240 nM	240 nM	40%	40%	15%	10%	
O=P(O)(O)C(CNC1CCc2ccccc21)P(=O)(O)O (stereo not drawn) [Compound 49]	10%	15%	10%	1730 nM	1730 nM	60%	50%	5%	10%	
CC[C@H](C)NCC(P(=O)(O)O)P(=O)(O)O [Compound 56]	100%	100%	60%	32 nM	32 nM	100%	100%	95%	98%	
C=C(C)CNCC(P(=O)(O)O)P(=O)(O)O [Compound 34]	100%	95%	15%	31 nM	31 nM	95%	95%	60%	60%	
CONCC(P(=O)(O)O)P(=O)(O)O [Compound 15]				6310 nM	6310 nM					pest or weed control at 1000 g/ha [1]: 0%; pest or weed control at 1000 g/ha [2]: 0%; pest or weed control at 1000 g/ha [3]: 0%; pest or weed control at 1000 g/ha [5]: 0%; pest or weed control at 1000 g/ha [6]: 0%; pest or weed control at 1000 g/ha [7]: 0%; pest or weed control at 1000 g/ha [8]: 0%
CCC1CCCCN1CC(P(=O)(O)O)P(=O)(O)O (stereo not drawn) [Compound 53]	90%	98%	5%	112 nM	112 nM	98%	100%	70%	30%	
CC1CCN(CC(P(=O)(O)O)P(=O)(O)O)CC1 [Compound 30]	100%	95%	5%	266 nM	266 nM	90%	90%	5%	30%	
